2 compounds from patent publication US20050277656A1, “Combination comprising docetaxel and a CDK inhibitor” (Cyclacel Limited, priority 2002, published 2005) can be followed below.

The structures appear in SMILES notation.

Data set [1] has as its system lung cancer xenograft (LXFL H460). In words: human tumour xenograft study, Experiment 2: docetaxel/roscovitine scheduling (LXFL H460). It is filed as in vivo, nude mice (NMRI nu/nu). The conditions noted are these: for T/C [%] day 28 / T/Copt [%] / dayopt. (day of T/Copt): single therapy: CYC202 300 mg/kg/d po bd days 0-4, 7-11, 14-18, TXT 20 mg/kg iv days 0, 14. A general note: A xenograft is tissue or cells of one species grown in another, often human tumour cells in immunodeficient mice.

A short description of data set [2]: toxicities (lethality, body weight change) in the LXFL H460 xenograft study. Format: in vivo, nude mice (NMRI nu/nu). The conditions noted are these: single therapy: CYC202 300 mg/kg/d po bd days 0-4, 7-11, 14-18, TXT 20 mg/kg iv days 0, 14; for Median BWC % (day 21): one week after last therapy of docetaxel.
The subject of data set [3] is MAXF 857 primary breast cancer xenograft. The note with it: taxotere on day 2, roscovitine on days 0-3 and 7-9 after randomization, or the combination of the two treatments.
For data set [4], the system named is breast tumor cells (MDA-435). In words: MTT assay, roscovitine exposure followed by docetaxel. The conditions noted are these: single agent at 100% of its IC50 (roscovitine 15 ug/ml or Tax. […]). A general note: Tetrazolium assays rely on reduction of a dye to a coloured formazan, in cell work by metabolically active cells.

In the case of `CC[C@H](CO)Nc1nc(NCc2ccccc2)c2ncn(C(C)C)c2n1` [roscovitine, 6-benzylamino-2-[(R)-1-ethyl-2-hydroxyethylamino]-9-isopropylpurine], in data set [1], the “T/C [%] day 28” value is 64%, the “T/Copt [%]” value is 64.3% and the “dayopt. (day of T/Copt)” value was 28 days. In data set [1] (listed as CYC202), the “T/C [%] day 28” value is reported as 64.3%. For the same compound, in data set [2], the “Median BWC % (day 21)” value is reported as “+7.1%”. Moreover, the “optimal T/C” value in data set [3] amounted to 63%. Also, in data set [4], the “% Abs” value came out at 0% and the “% Response” value is on record as 43.3%.
In the case of `CC(=O)O[C@@]12CO[C@@H]1C[C@H](O)[C@@]1(C)C(=O)[C@H](O)C3=C(C)[C@@H](OC(=O)[C@H](O)[C@@H](NC(=O)OC(C)(C)C)c4ccccc4)C[C@@](O)([C@@H](OC(=O)c4ccccc4)[C@H]21)C3(C)C` [docetaxel], the “Tumor growth delay in relation to the vehicle treated control” value in data set [1] (LXFL H460, combination Schedule 1, or docetaxel in single therapy) was found to be 9 days. Moreover, in data set [1], the “T/C [%] day 28” value was found to be 27%, the “T/Copt [%]” value was determined as 12.2% and the “dayopt. (day of T/Copt)” value is 10 days. Moreover, in data set [1] (listed as TXT), the “T/C [%] day 28” value is recorded as 27.3%. In data set [2], the “Lethality n (day)” value is given as 0/10 and the “Median BWC % (day 21)” value is −4.2%. Moreover, the “optimal T/C” value in data set [3] is 21%. The “% Response” value in data set [4] was 40.7%.
